Source: PMC2782520 (Biochemistry, 2009)
pEC50, pIC50, pKi: −log10 of the molar value.

How the values were obtained:
[1] = molecular target: ERβ LBD (amino acids 257–502) (Homo sapiens, UniProt Q92731); experiment: Differential HDX mass spectrometry of ERβLBD with and without ligand; type: binding; conditions: for Average difference in deuterium levels, LOOP 271-294 / Average difference in deuterium levels, LOOP 271-295 / Average difference in deuterium levels, LOOP 273-294 / Average difference in deuterium levels, LOOP 273-295 / Average difference in deuterium levels, LOOP 274-295 / Average difference in deuterium levels, LOOP 282-294 / Average difference in deuterium levels, LOOP 282-295: ERβLBD:ligand 1:10, average of 1, 30, 60, 900, 4200 sec, negative = protection
ERβ [2] = molecular target: T1, ERβ (Homo sapiens, UniProt Q92731); experiment: Cell based functional assay, ERE-luciferase in HEK 293 cells, agonist mode; conditions: for ERβ Agonist % stim: % stimulation versus DES maximum response; for pEC50: read-out: ERβ Agonist EC50, ERE-luciferase, 24 h
ER β = conditions: ERβ versus ERα; cited from earlier work
ERβ [3] = molecular target: T1, ERβ; experiment: Cell based functional assay, ERE-luciferase in HEK 293 cells, antagonist mode; conditions: for ERβ Antag % inhib.: HEK 293 cells, ERE-luciferase
ERβ [4] = molecular target: T1, ERβ; experiment: ER competition binding assay
ERα = molecular target: T2, ERα (Homo sapiens, UniProt P03372); experiment: ER competition binding assay
T2 sequence (P03372 1-595): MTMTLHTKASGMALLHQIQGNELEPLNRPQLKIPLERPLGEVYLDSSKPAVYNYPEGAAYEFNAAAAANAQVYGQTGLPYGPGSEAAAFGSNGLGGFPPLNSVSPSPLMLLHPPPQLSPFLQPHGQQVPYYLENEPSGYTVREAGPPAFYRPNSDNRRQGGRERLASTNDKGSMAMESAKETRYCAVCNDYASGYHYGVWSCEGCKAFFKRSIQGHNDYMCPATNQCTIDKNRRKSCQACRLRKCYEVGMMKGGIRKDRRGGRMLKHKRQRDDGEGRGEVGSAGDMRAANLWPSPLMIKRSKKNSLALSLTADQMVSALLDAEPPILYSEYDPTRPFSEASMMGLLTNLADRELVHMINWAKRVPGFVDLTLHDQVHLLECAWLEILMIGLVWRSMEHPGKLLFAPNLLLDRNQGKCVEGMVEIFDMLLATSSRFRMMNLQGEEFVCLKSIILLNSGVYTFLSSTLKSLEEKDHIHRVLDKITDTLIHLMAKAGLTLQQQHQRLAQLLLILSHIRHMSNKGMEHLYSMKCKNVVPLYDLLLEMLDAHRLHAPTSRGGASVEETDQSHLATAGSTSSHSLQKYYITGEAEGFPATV

Chain of ERβ LBD (amino acids 257–502) (Q92731 257-502): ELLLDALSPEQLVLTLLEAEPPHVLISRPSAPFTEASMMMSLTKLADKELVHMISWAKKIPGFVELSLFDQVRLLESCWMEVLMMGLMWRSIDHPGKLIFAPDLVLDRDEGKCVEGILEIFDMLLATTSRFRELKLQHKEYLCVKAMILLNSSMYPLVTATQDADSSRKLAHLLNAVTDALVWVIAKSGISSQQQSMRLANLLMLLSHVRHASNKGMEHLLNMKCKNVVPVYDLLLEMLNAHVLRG
T1 sequence (Q92731 whole entry): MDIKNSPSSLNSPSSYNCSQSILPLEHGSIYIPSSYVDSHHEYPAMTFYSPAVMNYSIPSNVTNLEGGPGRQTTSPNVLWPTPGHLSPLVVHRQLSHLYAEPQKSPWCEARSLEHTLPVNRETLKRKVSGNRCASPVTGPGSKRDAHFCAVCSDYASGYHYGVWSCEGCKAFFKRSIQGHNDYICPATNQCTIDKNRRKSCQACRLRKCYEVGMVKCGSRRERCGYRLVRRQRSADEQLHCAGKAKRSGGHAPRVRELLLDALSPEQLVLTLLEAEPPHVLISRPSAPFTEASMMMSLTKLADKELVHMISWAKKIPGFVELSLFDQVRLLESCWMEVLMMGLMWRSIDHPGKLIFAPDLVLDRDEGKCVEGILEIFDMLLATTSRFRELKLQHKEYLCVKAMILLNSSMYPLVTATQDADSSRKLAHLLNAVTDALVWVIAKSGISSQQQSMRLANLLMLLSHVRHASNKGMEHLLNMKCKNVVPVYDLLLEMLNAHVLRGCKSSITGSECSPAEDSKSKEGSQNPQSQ

SMILES | Average difference in deuterium levels, LOOP 271-294 [1] | Average difference in deuterium levels, LOOP 271-295 [1] | Average difference in deuterium levels, LOOP 273-294 [1] | Average difference in deuterium levels, LOOP 273-295 [1] | Average difference in deuterium levels, LOOP 274-295 [1] | Average difference in deuterium levels, LOOP 282-294 [1] | Average difference in deuterium levels, LOOP 282-295 [1] | Protection to exchange, β-sheet1/β-sheet2 region ([1]; amino acid 355–362 of ERβLBD, p<0.001, positive = protection) | Protection (stabilization) of helix 3 to H/D exchange, ERβ ([1]; helix 3, amino acids 296–309 in ERβ, positive = protection) | ERβ Agonist % stim (ERβ [2]) | Binding to ER β tighter than to ERα (ER β) | ERβ Antag % inhib. (ERβ [3]) | pEC50 (ERβ [2]) | pIC50 (ERβ [3]) | pKi (ERβ [4]) | pKi (ERα)
CC/C(=C(\c1ccc(O)cc1)c1ccc(OCCN(C)C)cc1)c1ccccc1 [4-hydroxy tamoxifen, 4-hydroxytamoxifen] | −8% | −11% | −12% | −11% | −12% | −10% | −11% | ~ 20% | 13% | – | – | – | – | – | – | –
CC/C(=C(/CC)c1ccc(O)cc1)c1ccc(O)cc1 [DES, Diethylstilbestrol] | −10% | −10% | −12% | −10% | −10% | −8% | −10% | – | – | 97% | – | – | – | – | – | –
C[C@]12CC[C@@H]3c4ccc(O)cc4CC[C@H]3[C@@H]1CC[C@@H]2O [Estradiol, 17β-estradiol] | −6% | −7% | −9% | −6% | −8% | −7% | −6% | – | – | 100% | – | – | – | – | – | –
O=c1c(-c2ccc(O)cc2)coc2cc(O)cc(O)c12 [Genistein, genistein] | – | – | – | – | – | – | – | – | – | – | approximately 10 fold | – | – | – | – | –
C[C@]12CC[C@@H]3c4ccc(O)cc4C[C@@H](CCCCCCCCC[S+]([O-])CCCC(F)(F)C(F)(F)F)[C@H]3[C@@H]1CC[C@@H]2O (stereo partly drawn) [ICI, ICI 182780] | −9% | −10% | −11% | −10% | −11% | −9% | −10% | – | – | – | – | 109% | – | – | – | –
Oc1ccc2c(c1)CC[C@H](c1ccccc1)[C@@H]2c1ccc(OCCN2CCCC2)cc1 [Lasodoxifene, lasofoxifene] | −11% | −11% | −12% | −9% | −12% | −9% | −9% | – | – | – | – | 103% | – | – | – | –
O=C(c1ccc(OCCN2CCCCC2)cc1)c1c(-c2ccc(O)cc2)sc2cc(O)ccc12 [Raloxifene, raloxifene] | −7% | −7% | −9% | −7% | – | −6% | −7% | – | – | – | – | – | – | – | – | –
O=C(c1ccc(O)cc1)c1c(-c2ccc(O)cc2)sc2cc(O)ccc12 [compound 88074] | −7% | −8% | −9% | −7% | −8% | −7% | −7% | – | – | 104% | – | – | 6.63 | – | – | –
O=C(c1ccc(OCCN2CCCC2)cc1)c1c(-c2ccc(O)cc2)sc2cc(O)ccc12 [compound 117018] | −7% | −7% | −8% | −7% | −8% | −7% | −8% | – | – | – | – | 108% | < 5.00 | 6.69 | 8.89 | 9.49
